Measured values taken from PubChem BioAssay AID2060625 (Molecular Pharmacology Branch, DTP, NCI, 2025).

Tested on: 186277-243-T-J2-PDC spheroids with HUVEC/MSC, viability
Assay: Anticancer human tumor 186277-243-T-J2-PDC patient-derived colon adenocarcinoma cell line growth inhibition [CLK]
Details: for IC50: curve of first compound; for viability, T/C: stronger effect = lower value
How it was run: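 Patient-derived tumor cells grown as complex spheroids with HUVEC endothelial cells and mesenchymal stem cells, treated with drug combinations. Concentrations descend in half-log steps from near clinical Cmax, or from 10 microM if Cmax unknown.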

[1] = second compound 0.0316 µM, first compound 0.0316 µM
[2] = second compound 0.0316 µM, first compound 0.1 µM
[3] = second compound 0.0316 µM, first compound 0.316 µM
[4] = second compound 0.0316 µM, first compound 1 µM
[5] = second compound 0.0316 µM, first compound 3.16 µM
[6] = second compound 0.0316 µM, first compound 10 µM
[7] = second compound 0.1 µM, first compound 0.0316 µM
[8] = second compound 0.1 µM, first compound 0.1 µM
[9] = second compound 0.1 µM, first compound 0.316 µM
[10] = second compound 0.1 µM, first compound 1 µM
[11] = second compound 0.1 µM, first compound 3.16 µM
[12] = second compound 0.1 µM, first compound 10 µM
[13] = second compound 0.316 µM, first compound 0.0316 µM
[14] = second compound 0.316 µM, first compound 0.1 µM
[15] = second compound 0.316 µM, first compound 0.316 µM
[16] = second compound 0.316 µM, first compound 1 µM
[17] = second compound 0.316 µM, first compound 3.16 µM
[18] = second compound 0.316 µM, first compound 10 µM
[19] = second compound 1 µM, first compound 0.0316 µM
[20] = second compound 1 µM, first compound 0.1 µM
[21] = second compound 1 µM, first compound 0.316 µM
[22] = second compound 1 µM, first compound 1 µM
[23] = second compound 1 µM, first compound 3.16 µM
[24] = second compound 1 µM, first compound 10 µM
[25] = second compound 3.16 µM, first compound 0.0316 µM
[26] = second compound 3.16 µM, first compound 0.1 µM
[27] = second compound 3.16 µM, first compound 0.316 µM
[28] = second compound 3.16 µM, first compound 1 µM
[29] = second compound 3.16 µM, first compound 3.16 µM
[30] = second compound 3.16 µM, first compound 10 µM
[31] = second compound 10 µM, first compound 0.0316 µM
[32] = second compound 10 µM, first compound 0.1 µM
[33] = second compound 10 µM, first compound 0.316 µM
[34] = second compound 10 µM, first compound 1 µM
[35] = second compound 10 µM, first compound 3.16 µM
[36] = second compound 10 µM, first compound 10 µM
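Further: compound exposure lasted seven days before readout.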
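Wherever viability, T/C is given: 100% = DMSO vehicle control wells.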

For `COc1ccc([C@@H](O)c2cc(-c3ncnc4cc(N5CCOCC5)ccc34)c(F)cc2Cl)nn1` + CNC(=O)c1ccc(Nc2nc(OC3CCCC3)c3c(-c4ccc5nc(C)oc5c4)c[nH]c3n2)c(OC)c1, the IC50 (second compound 0.0316 µM) was 7.66 µM, the IC50 (second compound 0.1 µM) was 0.384 µM and the IC50 (second compound 0.316 µM) was less than 0.0316 µM. For the same compound, the IC50 (second compound 1 µM) was less than 0.0316 µM, the IC50 (second compound 3.16 µM) was less than 0.0316 µM and the IC50 (second compound 10 µM) was less than 0.0316 µM. It also gave a viability, T/C [1] of 102%, a viability, T/C [2] of 86.8% and a viability, T/C [3] of 110%. It also gave a viability, T/C [4] of 87.6%, a viability, T/C [5] of 73.7% and a viability, T/C [6] of 43%. The viability, T/C [7] was 71.8%, the viability, T/C [8] was 62.5% and the viability, T/C [9] was 50.2%. For the same compound, the viability, T/C [10] was 42.7%, the viability, T/C [11] was 31.9% and the viability, T/C [12] was 23.5%. The viability, T/C [13] was 38.7%, the viability, T/C [14] was 40.7% and the viability, T/C [15] was 29.9%. It also gave a viability, T/C [16] of 23.7%, a viability, T/C [17] of 18.6% and a viability, T/C [18] of 14.5%. For the same compound, the viability, T/C [19] was 30.4%, the viability, T/C [20] was 25.2% and the viability, T/C [21] was 23.4%. The viability, T/C [22] was 16.2%, the viability, T/C [23] was 12.9% and the viability, T/C [24] was 12.2%. It also gave a viability, T/C [25] of 27.1%, a viability, T/C [26] of 29.2% and a viability, T/C [27] of 23.2%. For the same compound, the viability, T/C [28] was 18.5%, the viability, T/C [29] was 16% and the viability, T/C [30] was 10.7%. The viability, T/C [31] was 28.7%, the viability, T/C [32] was 29.5% and the viability, T/C [33] was 23.2%. The viability, T/C [34] was 19.8%, the viability, T/C [35] was 17.2% and the viability, T/C [36] was 9%.
`O=C(c1cc(Cc2n[nH]c(=O)c3ccccc23)ccc1F)N1CCN(C(=O)C2CC2)CC1` + CNC(=O)c1ccc(Nc2nc(OC3CCCC3)c3c(-c4ccc5nc(C)oc5c4)c[nH]c3n2)c(OC)c1 was tested, and the IC50 (second compound 0.0316 µM) was greater than 10 µM, the IC50 (second compound 0.1 µM) was greater than 10 µM and the IC50 (second compound 0.316 µM) was greater than 10 µM. The IC50 (second compound 1 µM) was less than 0.0316 µM, the IC50 (second compound 3.16 µM) was less than 0.0316 µM and the IC50 (second compound 10 µM) was less than 0.0316 µM. For the same compound, the viability, T/C [1] was 129%, the viability, T/C [2] was 119% and the viability, T/C [3] was 113%. For the same compound, the viability, T/C [4] was 109%, the viability, T/C [5] was 115% and the viability, T/C [6] was 120%. It also gave a viability, T/C [7] of 88.7%, a viability, T/C [8] of 81.7% and a viability, T/C [9] of 88.3%. It also gave a viability, T/C [10] of 81.2%, a viability, T/C [11] of 83.1% and a viability, T/C [12] of 84.1%. The viability, T/C [13] was 55.8%, the viability, T/C [14] was 52.3% and the viability, T/C [15] was 55.4%. It also gave a viability, T/C [16] of 56.7%, a viability, T/C [17] of 57.3% and a viability, T/C [18] of 57.6%. It also gave a viability, T/C [19] of 39.5%, a viability, T/C [20] of 39.7% and a viability, T/C [21] of 41.7%. For the same compound, the viability, T/C [22] was 37.7%, the viability, T/C [23] was 41.8% and the viability, T/C [24] was 43.9%. For the same compound, the viability, T/C [25] was 36.8%, the viability, T/C [26] was 36.6% and the viability, T/C [27] was 34.9%. For the same compound, the viability, T/C [28] was 36.7%, the viability, T/C [29] was 38.1% and the viability, T/C [30] was 39.6%. The viability, T/C [31] was 37.7%, the viability, T/C [32] was 37.5% and the viability, T/C [33] was 37.9%. It also gave a viability, T/C [34] of 36.5%, a viability, T/C [35] of 39.9% and a viability, T/C [36] of 35.5%.
